This is an account of results in ChEMBL document CHEMBL1201862, “PubChem BioAssay data set” (2004).

Holding throughout (assay): growth of human tumour cells (NCI), 48 h
Assay [1] has as its system UO-31.
Assay [2] concerns EKVX.
The subject of assay [3] is RXF 393.
The test system of assay [4] is HCT-116.
The test system of assay [5] is Malme-3M.
In assay [6] the test system is U-251.
In assay [7] the test system is SNB-75.
Assay [8] has as its system SK-MEL-2.
The test system of assay [9] is CCRF-CEM.
Assay [10] has as its system NCI-H460.
Assay [11] relates to NCI-H23.
For assay [12], the system named is CAKI-1.
The test system of assay [13] is SW-620.
Assay [14] has as its system HCC 2998.
Assay [15] relates to UACC-257.
In assay [16] the test system is HOP-62.
Assay [17] relates to OVCAR-4.
The test system of assay [18] is OVCAR-3.
Assay [19] concerns HCT-15.
The test system of assay [20] is TK-10.

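How tested: cells in 96-well plates exposed to compound for 48 hours at five concentrations. GI50 marks 50% less growth.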 The source made the active and inactive calls. Cut-off read from the data, not from the text of the source: active = GI50 up to about 1.1 µM and inactive = higher.

Take `C=C1C(=O)OC2C=C(C)CC3C=C(CCC=C(C)CCC12)C(=O)O3` (configuration not stated): the GI50 in [1] was 105 µM (inactive); in [2] it was 62.4 µM (inactive); in assay [3] it was 31.3 µM (inactive); in assay [4], 33.1 µM (inactive); in [5], 46.1 µM (inactive); in [6], 65 µM (inactive). For the same molecule, the GI50 was 92.5 µM (inactive) in [7]; 53.3 µM (inactive) in assay [8]; 16.5 µM (inactive) in [9]; 67.5 µM (inactive) in assay [10]; 49.3 µM (inactive) in assay [11]; 54.7 µM (inactive) in assay [12]. The GI50 was 31 µM (inactive) in assay [13]; 58.7 µM (inactive) in assay [14]; 43.1 µM (inactive) in assay [15]; 114 µM (inactive) in assay [16]; 72.3 µM (inactive) in assay [17]; 56.8 µM (inactive) in assay [18]. In assay [19], this molecule had a GI50 of 56.6 µM.

On to `[O-][S+]1[C@H](c2ccccc2)c2c(-c3ccccc3)sc(-c3ccccc3)c2[C@@H]1c1ccccc1` (some centres not stated), for which the GI50 in [1] was 65.6 µM (inactive); in assay [2], 0.286 µM (active); in assay [3], 23.1 µM (inactive); in assay [5], 23.4 µM (inactive); in [6], 9.44 µM (inactive); in assay [7], 12.4 µM (inactive). Besides, the GI50 in [8] was 32.7 µM (inactive); in assay [9] it was 89.7 µM (inactive); in [10], 17.1 µM (inactive); in assay [11], 6.55 µM (inactive); in assay [12], 15.2 µM (inactive); in assay [13], 13.2 µM (inactive). The GI50 in assay [14] was > 100 µM (inactive); in assay [15], > 100 µM (inactive); in assay [16], > 100 µM (inactive); in assay [17], 8.49 µM (inactive); in assay [20] it was 9.1 µM (inactive); in assay [18], > 100 µM (inactive). In addition, the GI50 in assay [19] is 7.1 µM.

Turning to `CC(C)(C)OC(=O)NC(Cc1c[nH]cn1)C(=O)N1CCCC1C(N)=O` (configuration not stated), the GI50 was > 100 µM (inactive) in assay [1]; > 100 µM (inactive) in assay [2]; 2.17 µM (inactive) in assay [3]; > 100 µM (inactive) in assay [4]; > 100 µM (inactive) in assay [5]; > 100 µM (inactive) in assay [6]. In addition, the GI50 in assay [7], in assay [8], in assay [9], in assay [10], in assay [11] and in [12] was > 100 µM (inactive) throughout. Further, the GI50 in assay [13], in assay [14], in [15], in assay [16], in assay [17] and in assay [20] was > 100 µM (inactive) in each case. Besides, the GI50 in assay [18] is > 100 µM (inactive); in [19], > 100 µM.

For the molecule `O=C(Nc1cccc2ccccc12)Oc1ccccc1C1CCCCC1`, the GI50 in [1] was 16.1 µM (inactive); in assay [2] it was 22.6 µM (inactive); in assay [3], 15 µM (inactive); in [4], 17.7 µM (inactive); in assay [5] it was 17.7 µM (inactive); in assay [6], 13.4 µM (inactive). The GI50 in [7] was 13.9 µM (inactive); in assay [8], 18.2 µM (inactive); in assay [9], 15 µM (inactive); in assay [10], 18.5 µM (inactive); in assay [11], 17.9 µM (inactive); in [13], 20.6 µM (inactive). In addition, the GI50 is 18.5 µM (inactive) in [14]; 15.5 µM (inactive) in assay [15]; 19 µM (inactive) in assay [16]; 16.3 µM (inactive) in [17]; 23 µM (inactive) in assay [20]; 18.6 µM (inactive) in [18]. This molecule showed a GI50 in assay [19] of 17.2 µM.

Take `CC(=O)OC1C(O)C(C)OC(OC(=O)C2CCC3C(C2)OC2(CC(OC(=O)/C=C/c4ccccc4)C(C)CO2)C32CO2)C1OC1OC(C)C(O)C(O)C1O` (configuration not stated): the GI50 is 7.78 µM (inactive) in assay [1]; 0.0417 µM (active) in assay [2]; 0.0644 µM (active) in assay [3]; 0.038 µM (active) in assay [4]; 0.0378 µM (active) in assay [5]; 0.04 µM (active) in assay [6]. Besides, the GI50 in assay [7] was 0.0468 µM (active); in [8], 0.0325 µM (active); in assay [9] it was 0.0342 µM (active); in assay [10] it was 0.0448 µM (active); in [11] it was 0.0467 µM (active); in assay [12], 2.08 µM (inactive). In addition, the GI50 was 0.0504 µM (active) in assay [13]; 0.0373 µM (active) in assay [14]; 0.0325 µM (active) in assay [15]; 0.0794 µM (active) in assay [16]; 0.0325 µM (active) in [17]; 0.0578 µM (active) in assay [18]. Besides, the GI50 in assay [19] was 3.96 µM.

Consider `Cc1cn(Cc2cn(CC3OC(n4cc(C)c(=O)[nH]c4=O)CC3O)nn2)c(=O)[nH]c1=O` (configuration not stated), for which the GI50 in assay [1], in assay [2], in [3], in assay [4], in assay [5] and in [6] was > 100 µM (inactive) each time. Further, the GI50 in assay [7], in assay [8], in [9], in [11], in assay [12] and in [13] was > 100 µM (inactive) in each case. The GI50 in assay [14], in assay [15], in assay [16], in assay [17], in [20] and in [18] was > 100 µM (inactive) each time. Besides, the GI50 in assay [19] is > 100 µM.

In the case of `CCOc1ccc2nc(NC(=O)C(=O)C(C(=O)c3ccccc3F)C3OC(=O)c4ccccc43)sc2c1` (configuration not stated), the GI50 was 18.4 µM (inactive) in assay [1]; 19.1 µM (inactive) in assay [2]; 21.5 µM (inactive) in assay [3]; 17.6 µM (inactive) in assay [4]; 11.1 µM (inactive) in [6]; 15.1 µM (inactive) in assay [7]. The GI50 in [8] is 19.6 µM (inactive); in [9] it was 12.3 µM (inactive); in assay [10], 17.5 µM (inactive); in assay [12], 31.8 µM (inactive); in [13] it was 19.3 µM (inactive); in assay [14], 15.9 µM (inactive). Besides, the GI50 in assay [15] was 41.3 µM (inactive); in assay [16], 23.5 µM (inactive); in assay [17], 19.2 µM (inactive); in assay [20], 23.3 µM (inactive); in [19] it was 14.5 µM.

`O=C(O)CN1CCN(CC(=O)O)CCN(CC(=O)O)CC1`: the GI50 was 83.8 µM (inactive) in assay [1]; 59.2 µM (inactive) in assay [2]; 5.64 µM (inactive) in [3]; 3.7 µM (inactive) in assay [4]; > 28.7 µM (inactive) in assay [5]; 16.4 µM (inactive) in [6]. The GI50 in [7] was 12.6 µM (inactive); in [8], > 43.3 µM (inactive); in assay [9], 3.91 µM (inactive); in [10] it was 3.49 µM (inactive); in assay [11] it was 28.6 µM (inactive); in [12] it was 8890 µM (inactive). Also, the GI50 was 8.47 µM (inactive) in assay [13]; 3.15 µM (inactive) in assay [14]; 58.7 µM (inactive) in [15]; > 100 µM (inactive) in assay [16]; 34.1 µM (inactive) in assay [17]; > 48.8 µM (inactive) in assay [20]. The GI50 was > 94.6 µM (inactive) in assay [18] and 4.53 µM in [19].
